These results are taken from ChEMBL document CHEMBL1201862, “PubChem BioAssay data set” (2004).

Structures are written as SMILES.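 Cells were grown in 96-well plates and exposed to each compound for 48 hours at five concentrations; endpoints were interpolated linearly between bracketing concentrations, or set to the highest concentration if not reached. Abbreviation: GI50, concentration required for 50% inhibition of growth.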 Active and inactive are the calls of the source. Rule as the data show it: active = GI50 up to about 1.1 µM and inactive = higher.

Some test systems named below: M14; KM12; TK-10; HT-29; A549; SF-268; MOLT-4; NCI-H522; HCT-15; SF-539; IGROV-1; CAKI-1; LXFL 529; ACHN; SF-295; U-251; HOP-92; OVCAR-8; A498; SR.
What all share (experiment): NCI anticancer screen, dose series, 48 h

With `N#CC(C(=O)/C(=N/N)C(C#N)c1ccccc1)c1ccccc1` (stereo not drawn), the GI50 with M14, in the assay with KM12, in the assay on TK-10, with HT-29, with A549 and in the assay with SF-268 was > 100 µM (inactive) each time. The GI50 in the assay with MOLT-4 was > 100 µM (inactive); in the assay with NCI-H522, > 100 µM (inactive); in the assay on HCT-15, above 100 µM; with SF-539 it was > 100 µM (inactive); with IGROV-1, > 100 µM (inactive); in the assay on CAKI-1, > 100 µM (inactive). In addition, the GI50 in the assay on LXFL 529, with ACHN, in the assay on SF-295, with U-251, in the assay with HOP-92 and in the assay on OVCAR-8 was > 100 µM (inactive) throughout.

For the molecule `CC12CCC(=O)N1c1cccnc1N2` (stereo not drawn), the GI50 in the assay on M14, in the assay on KM12, with TK-10, in the assay on HT-29, in the assay with A549 and in the assay with SF-268 was > 100 µM (inactive) in each case. In addition, the GI50 is > 100 µM (inactive) in the assay with MOLT-4; > 100 µM (inactive) in the assay on NCI-H522; above 100 µM in the assay with HCT-15; > 100 µM (inactive) with SF-539; > 100 µM (inactive) in the assay with IGROV-1; > 100 µM (inactive) in the assay with CAKI-1. The GI50 with LXFL 529, in the assay with ACHN, in the assay on SF-295, in the assay on U-251, with HOP-92 and with OVCAR-8 was > 100 µM (inactive) each time. Further, the GI50 with A498 was > 100 µM (inactive).

For `COC1C(OC(=O)c2ccc(C)[nH]2)C(O)C(Oc2ccc3c(O)c(NC(=O)c4c[nH]c(C(=O)Nc5c(O)c6ccc(OC7OC(C)(C)C(OC)C(OC(=O)c8ccc(C)[nH]8)C7O)c(C)c6oc5=O)c4C)c(=O)oc3c2C)OC1(C)C` (stereo not drawn), the GI50 in the assay with KM12 was 1.32 µM (inactive); in the assay with TK-10 it was 4.86 µM (inactive); in the assay with HT-29, 3.9 µM (inactive); with A549, 3.39 µM (inactive); with SF-268, 0.67 µM (active); in the assay on MOLT-4, 0.857 µM (active). For the same molecule, the GI50 in the assay on HCT-15 was 1.88 µM; in the assay on IGROV-1, 1.3 µM (inactive); in the assay with CAKI-1, 2.75 µM (inactive); with LXFL 529 it was 1.07 µM (active); in the assay with ACHN it was 2.53 µM (inactive); with SF-295, 4.01 µM (inactive). For the same molecule, the GI50 in the assay on U-251 was 0.597 µM (active); with HOP-92, 2.44 µM (inactive); in the assay on OVCAR-8, 2.81 µM (inactive); in the assay with A498, 1.76 µM (inactive).

With `N#C/C(=C1\OC(=N)C(c2ccc(Cl)cc2Cl)C1=O)c1ccc(Cl)cc1Cl` (stereo not drawn), the GI50 with M14, with TK-10, in the assay on HT-29, in the assay on A549, in the assay with SF-268 and in the assay on MOLT-4 was > 100 µM (inactive) each time. The GI50 was > 100 µM (inactive) in the assay with NCI-H522; above 100 µM in the assay with HCT-15; > 100 µM (inactive) in the assay with SF-539; > 100 µM (inactive) in the assay with IGROV-1; > 100 µM (inactive) in the assay on CAKI-1; > 100 µM (inactive) with LXFL 529. The GI50 in the assay on ACHN is > 100 µM (inactive); in the assay with SF-295, > 100 µM (inactive); in the assay on HOP-92, 80.5 µM (inactive); in the assay with OVCAR-8 it was > 100 µM (inactive); in the assay with A498 it was > 100 µM (inactive).

Take `CCc1ccc(Nc2ccc([N+](=O)[O-])cc2[N+](=O)[O-])cc1`: the GI50 in the assay on M14 was > 100 µM (inactive); in the assay on KM12 it was 52.5 µM (inactive); in the assay on TK-10 it was 73.8 µM (inactive); in the assay on HT-29, 47.3 µM (inactive); in the assay on A549, 40.9 µM (inactive); in the assay on MOLT-4, 19.1 µM (inactive). Moreover, the GI50 was 96.4 µM in the assay on HCT-15; > 100 µM (inactive) in the assay on SF-539; 97.3 µM (inactive) with IGROV-1; 39.1 µM (inactive) in the assay with CAKI-1; 50.9 µM (inactive) in the assay with LXFL 529; > 100 µM (inactive) in the assay with ACHN. Besides, the GI50 in the assay with SF-295 was 89.7 µM (inactive); in the assay on U-251, 77.1 µM (inactive); in the assay on OVCAR-8 it was 97.7 µM (inactive); with A498 it was 23.7 µM (inactive).

As to `CC(=O)O[C@H]1CCC2[C@@H]3CCC4c5nonc5CC[C@]4(C)C3CC[C@@]21C` (stereo partly drawn), the GI50 with M14, in the assay on KM12, in the assay on TK-10, in the assay with HT-29, in the assay on A549 and in the assay on SF-268 was > 10 µM (inactive) throughout. The GI50 in the assay with MOLT-4 was > 10 µM (inactive); with NCI-H522, > 10 µM (inactive); in the assay on HCT-15, above 10 µM; with SF-539, > 10 µM (inactive); in the assay with IGROV-1 it was > 10 µM (inactive); in the assay with CAKI-1, > 10 µM (inactive). Besides, the GI50 with LXFL 529 was > 10 µM (inactive); in the assay with ACHN, 88.7 µM (inactive); in the assay on SF-295 it was > 10 µM (inactive); with U-251 it was > 10 µM (inactive); in the assay on HOP-92, > 10 µM (inactive); with OVCAR-8 it was > 10 µM (inactive). Besides, in the assay on A498, the GI50 was > 10 µM (inactive).

Consider `CCN1CCC(O)(c2ccc(Cl)c(Cl)c2)C(C(=O)c2ccc(Cl)c(Cl)c2)C1` (stereo not drawn), for which the GI50 in the assay on M14 is 16.7 µM (inactive); in the assay with TK-10, 16.5 µM (inactive); with HT-29 it was 18.2 µM (inactive); in the assay on A549, 19.4 µM (inactive); with SF-268, 18.2 µM (inactive); with MOLT-4 it was 15.1 µM (inactive). The GI50 was 3.71 µM (inactive) in the assay on NCI-H522; 18.8 µM in the assay on HCT-15; 17.7 µM (inactive) in the assay with SF-539; 20.6 µM (inactive) in the assay with IGROV-1; 18.3 µM (inactive) in the assay on CAKI-1; 16.2 µM (inactive) in the assay on LXFL 529. The GI50 in the assay on ACHN was 13.3 µM (inactive); in the assay on SF-295, 17.6 µM (inactive); in the assay with U-251 it was 18 µM (inactive); in the assay with HOP-92, 14.5 µM (inactive); in the assay on OVCAR-8, 19.8 µM (inactive); with A498, 21.5 µM (inactive).

Regarding `CC(=O)NCCC1CN(C(=O)/C=C/I)c2ccccc21` (stereo not drawn), the GI50 is 3.37 µM (inactive) in the assay on M14; 1.24 µM (inactive) in the assay on KM12; 1.42 µM (inactive) with TK-10; 5.51 µM (inactive) with HT-29; 17.2 µM (inactive) with A549; 9.08 µM (inactive) in the assay with SF-268. Moreover, the GI50 is 3.79 µM (inactive) in the assay on MOLT-4; 1.39 µM (inactive) with NCI-H522; 4.93 µM with HCT-15; 8 µM (inactive) in the assay on SF-539; 6.55 µM (inactive) in the assay on IGROV-1; 4.75 µM (inactive) in the assay with CAKI-1. The GI50 is 6.59 µM (inactive) in the assay with ACHN; 15.5 µM (inactive) in the assay with SF-295; 10.8 µM (inactive) in the assay with U-251; 1.9 µM (inactive) in the assay with HOP-92; 2.9 µM (inactive) in the assay with SR; 9.79 µM (inactive) with OVCAR-8. Further, the GI50 in the assay with A498 was 6.98 µM (inactive).

For the molecule `O=C1C=CC2(C=C1)CCC(=O)O2`, the GI50 in the assay with M14 is 29.2 µM (inactive); in the assay with KM12, 15.3 µM (inactive); in the assay with TK-10 it was 11.9 µM (inactive); with HT-29 it was 22.9 µM (inactive); in the assay on A549, 20.6 µM (inactive); with SF-268, 12.1 µM (inactive). The GI50 in the assay on MOLT-4 is > 100 µM (inactive); with NCI-H522 it was 2.34 µM (inactive); with HCT-15 it was 7.52 µM; with SF-539, 12.2 µM (inactive); in the assay with IGROV-1 it was 10.8 µM (inactive); in the assay with CAKI-1 it was 5.87 µM (inactive). For the same molecule, the GI50 was 15.2 µM (inactive) with ACHN; 19.8 µM (inactive) with SF-295; 7.18 µM (inactive) in the assay on U-251; 11.1 µM (inactive) in the assay with HOP-92; 6.38 µM (inactive) with SR; 16.2 µM (inactive) in the assay on OVCAR-8. The GI50 in the assay with A498 is 36.3 µM (inactive).

Take `COc1cccc(Nc2nc(N)nc(N)c2N=O)c1`: the GI50 is 30.8 µM (inactive) in the assay with M14; 29.1 µM (inactive) in the assay on KM12; 19.8 µM (inactive) in the assay with TK-10; 21.8 µM (inactive) in the assay with HT-29; 31 µM (inactive) in the assay on A549; 14.7 µM (inactive) with SF-268. The GI50 was 7.24 µM (inactive) in the assay on MOLT-4; 8.65 µM (inactive) in the assay on NCI-H522; 22 µM in the assay with HCT-15; 15.3 µM (inactive) in the assay on SF-539; 2.38 µM (inactive) in the assay on IGROV-1; 11.3 µM (inactive) with CAKI-1. For the same molecule, the GI50 in the assay on ACHN was 17.3 µM (inactive); in the assay on SF-295, 27 µM (inactive); with U-251, 31.8 µM (inactive); in the assay on HOP-92, 7.14 µM (inactive); in the assay with SR, 18.5 µM (inactive); with OVCAR-8, 16.1 µM (inactive). The GI50 in the assay on A498 was 21.7 µM (inactive).

For `C=CCC(O)c1cc(OC)ccc1OC` (stereo not drawn), the GI50 with M14, with KM12, in the assay with TK-10, with HT-29, in the assay with A549 and with SF-268 was > 100 µM (inactive) throughout. The GI50 is > 10 µM (inactive) with MOLT-4; > 100 µM (inactive) with NCI-H522; above 100 µM in the assay with HCT-15; > 100 µM (inactive) in the assay on SF-539; > 100 µM (inactive) with IGROV-1; > 100 µM (inactive) with CAKI-1. In addition, the GI50 in the assay on LXFL 529, in the assay on ACHN, in the assay with SF-295, in the assay with U-251, in the assay on HOP-92 and in the assay on OVCAR-8 was > 100 µM (inactive) in each case.
